# Source: ChEMBL document CHEMBL4368904 (J Med Chem, 2019)
# The source made the active and inactive calls. No cut-off for these calls is given here.
# Experiments:
# [1] = target: 5-hydroxytryptamine receptor 5A (Homo sapiens, UniProt P47898); assay: Inhibition of 5HT5A (unknown origin)
# [2] = target: T1, Adenosine receptor A2a (Homo sapiens, UniProt P29274); assay: Displacement of [3H]2-[p-(2-carboxyethyl)phenylethylamino]-5-N-ethylcarboxamidoadenosine from human A2A adenosine receptor expressed in HEK293 cell membranes at 10 uM after 60 mins by scintillation proximity assay relative to adenosine 5-N-ethyluronamide
# [3] = target: T2, Adenosine receptor A1 (Homo sapiens) (UniProt P30542); assay: Displacement of [3H]N6-R-phenylisopropyladenosine from human A1A adenosine receptor expressed in CHO cell membranes at 10 uM after 60 mins by scintillation proximity assay relative to adenosine 5-N-ethyluronamide
# T2 sequence (whole entry): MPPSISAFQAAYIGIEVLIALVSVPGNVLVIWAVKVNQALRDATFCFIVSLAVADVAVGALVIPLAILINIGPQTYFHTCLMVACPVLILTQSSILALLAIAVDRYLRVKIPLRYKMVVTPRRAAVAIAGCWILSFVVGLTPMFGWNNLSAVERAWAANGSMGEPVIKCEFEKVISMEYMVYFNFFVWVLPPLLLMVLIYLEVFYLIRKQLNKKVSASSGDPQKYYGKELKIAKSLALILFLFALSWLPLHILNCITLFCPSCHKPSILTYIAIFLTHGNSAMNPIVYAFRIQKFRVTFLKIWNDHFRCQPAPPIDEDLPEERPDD
# [4] = target: Histamine H2 receptor (Homo sapiens, UniProt P25021); assay: Inhibition of histamine H2 receptor (unknown origin)
# [5] = target: T3, Adenosine receptor A3 (Homo sapiens) (UniProt P0DMS8); assay: Displacement of [125I]N6-(4-amino-3-iodobenzyl)adenosine-5-N-methyluronamide from human A3A adenosine receptor expressed in CHO cell membranes at 10 uM after 60 mins by scintillation proximity assay relative to adenosine 5-N-ethyluronamide
# T3 sequence (whole entry): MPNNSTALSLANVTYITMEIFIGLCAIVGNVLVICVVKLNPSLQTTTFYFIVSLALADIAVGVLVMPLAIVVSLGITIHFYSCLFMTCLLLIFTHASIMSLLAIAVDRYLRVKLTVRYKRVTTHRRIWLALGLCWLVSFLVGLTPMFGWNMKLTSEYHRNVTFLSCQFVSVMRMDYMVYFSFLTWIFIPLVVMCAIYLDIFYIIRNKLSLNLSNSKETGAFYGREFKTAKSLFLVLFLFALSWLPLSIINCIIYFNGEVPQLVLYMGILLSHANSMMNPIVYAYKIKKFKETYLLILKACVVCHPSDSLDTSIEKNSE
# [6] = target: 5-hydroxytryptamine receptor 2B (Homo sapiens, UniProt P41595); assay: Inhibition of 5HT2B (unknown origin)
# [7] = target: T4, Adenosine receptor A1 (Mus musculus) (UniProt Q60612); assay: Agonist activity at mouse A1A adenosine receptor at 10 uM after 60 mins by [35S]GTPgammaS binding assay relative to (2S,3S,4R,5R)-5-(6-amino-9H-purin-9-yl)-N-ethyl-3,4-dihydroxytetrahydrofuran-2-carboxamide; format: functional
# T4 sequence (whole entry): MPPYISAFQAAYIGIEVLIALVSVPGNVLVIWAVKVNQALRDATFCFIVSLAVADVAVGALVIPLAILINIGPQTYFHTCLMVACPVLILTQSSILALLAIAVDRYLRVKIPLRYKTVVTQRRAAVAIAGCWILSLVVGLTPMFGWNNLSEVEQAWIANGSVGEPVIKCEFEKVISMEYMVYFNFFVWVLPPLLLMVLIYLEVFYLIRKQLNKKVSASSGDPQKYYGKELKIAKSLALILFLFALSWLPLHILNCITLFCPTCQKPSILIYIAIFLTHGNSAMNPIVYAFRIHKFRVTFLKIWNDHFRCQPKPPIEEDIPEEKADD
# [8] = target: Adenosine receptor A2a (Mus musculus) (UniProt Q60613); assay: Displacement of [3H]2-[p-(2-carboxyethyl)phenylethylamino]-5-N-ethylcarboxamidoadenosine from mouse A2A adenosine receptor expressed in HEK293 cell membranes at 10 uM after 60 mins by scintillation proximity assay relative to adenosine 5-N-ethyluronamide
# [9] = Fraction unbound in mouse plasma at 10 uM; format: ADME, cell-free
# [10] = target: T5, Adenosine receptor A3 (Mus musculus, UniProt Q61618); assay: Displacement of [125I]N6-(4-amino-3-iodobenzyl)adenosine-5-N-methyluronamide from mouse A3A adenosine receptor expressed in CHO cell membranes after 60 mins by scintillation proximity assay
# T5 sequence (Q61618 whole entry): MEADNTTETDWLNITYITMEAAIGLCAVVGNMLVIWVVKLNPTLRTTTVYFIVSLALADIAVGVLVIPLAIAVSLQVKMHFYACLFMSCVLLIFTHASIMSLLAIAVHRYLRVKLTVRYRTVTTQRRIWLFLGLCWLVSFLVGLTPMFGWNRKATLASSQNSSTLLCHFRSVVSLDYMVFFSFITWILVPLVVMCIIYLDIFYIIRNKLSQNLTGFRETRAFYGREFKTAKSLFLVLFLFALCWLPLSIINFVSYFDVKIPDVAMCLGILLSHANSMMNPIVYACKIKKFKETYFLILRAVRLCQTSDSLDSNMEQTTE
# [11] = target: T1, Adenosine receptor A2a; assay: Displacement of [3H]2-[p-(2-carboxyethyl)phenylethylamino]-5-N-ethylcarboxamidoadenosine from human A2A adenosine receptor expressed in HEK293 cell membranes after 60 mins by scintillation proximity assay
# [12] = organism: Mus musculus; assay: Selectivity index, ratio of Ki for mouse A3A adenosine receptor to Ki for mouse A1A adenosine receptor expressed in CHO cell membranes after 60 mins by scintillation proximity assay
# [13] = system: Mus musculus; assay: Induction of hypothermia in A1AR knock out C57BL/6J mouse assessed as effect on body temperature at 3 mg/kg, ip measured at 60 mins post dose; format: functional, organism-based
# [14] = system: Mus musculus; assay: Induction of hypothermia in A3AR knock out C57BL/6J mouse assessed as effect on body temperature at 3 mg/kg, ip measured at 60 mins post dose; format: functional, organism-based
# [15] = system: Mus musculus; assay: Induction of hypothermia in C57BL/6J mouse assessed as activity counts at 3 mg/kg, ip measured at 60 mins post dose (reference value: 15.5 +/- 5.5); format: functional
# [16] = Fraction unbound in rat plasma at 10 uM; format: ADME, cell-free
# [17] = target: T6, Adenosine receptor A3 (Mus musculus) (UniProt Q61618); assay: Agonist activity at mouse A3AR adenosine receptor at 10 uM after 60 mins by [35S]GTPgammaS binding assay relative to (2S,3S,4R,5R)-5-(6-amino-9H-purin-9-yl)-N-ethyl-3,4-dihydroxytetrahydrofuran-2-carboxamide; format: functional
# T6 sequence (whole entry): T5 sequence (Q61618 whole entry)
# [18] = system: Mus musculus; assay: Induction of hypothermia in A1AR/A3AR knock out C57BL/6J mouse assessed as effect on body temperature at 3 mg/kg, ip measured at 60 mins post dose; format: functional, organism-based
# [19] = system: Mus musculus; assay: Induction of hypothermia in C57BL/6J mouse assessed as body temperature at 3 mg/kg, ip measured at 60 mins post dose (reference value: 36.3 +/- 0.8 degC); format: functional
# [20] = target: T7, Adenosine receptor A1 (Mus musculus, UniProt Q60612); assay: Displacement of [3H]N6-R-phenylisopropyladenosine from mouse A1A adenosine receptor expressed in CHO cell membranes after 60 mins by scintillation proximity assay
# T7 sequence (Q60612 whole entry): T4 sequence (whole entry)
# [21] = Fraction unbound in human plasma at 10 uM; format: ADME, cell-free
# [22] = target: T8, Adenosine receptor A3 (Homo sapiens, UniProt P0DMS8); assay: Displacement of [125I]N6-(4-amino-3-iodobenzyl)adenosine-5-N-methyluronamide from human A3A adenosine receptor expressed in CHO cell membranes after 60 mins by scintillation proximity assay
# T8 sequence (P0DMS8 whole entry): T3 sequence (whole entry)
# [23] = target: T9, Adenosine receptor A1 (Homo sapiens, UniProt P30542); assay: Displacement of [3H]N6-R-phenylisopropyladenosine from human A1A adenosine receptor expressed in CHO cell membranes after 60 mins by scintillation proximity assay
# T9 sequence (P30542 whole entry): T2 sequence (whole entry)
# [24] = target: Sodium-dependent noradrenaline transporter (Homo sapiens, UniProt P23975); assay: Inhibition of NET (unknown origin)
# [25] = target: Sigma intracellular receptor 2 (Homo sapiens, UniProt Q5BJF2); assay: Inhibition of sigma receptor 2 (unknown origin)
# [26] = target: Translocator protein (Homo sapiens, UniProt P30536); assay: Inhibition of TSPO (unknown origin) at 10 uM relative to control
# [27] = system: Mus musculus; assay: Induction of hypothermia in C57BL/6J mouse assessed as activity counts at 10 mg/kg, ip measured at 60 mins post dose (reference value: 15.5 +/- 5.5); format: functional
# [28] = system: Mus musculus; assay: Induction of hypothermia in C57BL/6J mouse assessed as body temperature at 10 mg/kg, ip measured at 60 mins post dose (reference value: 36.3 +/- 0.8 degC); format: functional
# [29] = target: T9, Adenosine receptor A1; assay: Agonist activity at human A1A adenosine receptor expressed in CHOKI cells assessed as induction of beta-arrestin2 recruitment after 60 mins; format: cell-based
# [30] = target: T9, Adenosine receptor A1; assay: Agonist activity at human A1A adenosine receptor expressed in HEK cell membranes incubated for 60 mins by [35S]GTPgammaS binding assay; format: functional
# [31] = target: T9, Adenosine receptor A1; assay: Agonist activity at human A1A adenosine receptor expressed in HEK cells assessed as inhibition of forskolin-stimulated cAMP production after 60 mins; format: functional, cell-based
# [32] = target: T6, Adenosine receptor A3 (Mus musculus); assay: Displacement of [125I]N6-(4-amino-3-iodobenzyl)adenosine-5-N-methyluronamide from mouse A3A adenosine receptor expressed in CHO cell membranes at 10 uM after 60 mins by scintillation proximity assay relative to adenosine 5-N-ethyluronamide
# T1 sequence (P29274 whole entry): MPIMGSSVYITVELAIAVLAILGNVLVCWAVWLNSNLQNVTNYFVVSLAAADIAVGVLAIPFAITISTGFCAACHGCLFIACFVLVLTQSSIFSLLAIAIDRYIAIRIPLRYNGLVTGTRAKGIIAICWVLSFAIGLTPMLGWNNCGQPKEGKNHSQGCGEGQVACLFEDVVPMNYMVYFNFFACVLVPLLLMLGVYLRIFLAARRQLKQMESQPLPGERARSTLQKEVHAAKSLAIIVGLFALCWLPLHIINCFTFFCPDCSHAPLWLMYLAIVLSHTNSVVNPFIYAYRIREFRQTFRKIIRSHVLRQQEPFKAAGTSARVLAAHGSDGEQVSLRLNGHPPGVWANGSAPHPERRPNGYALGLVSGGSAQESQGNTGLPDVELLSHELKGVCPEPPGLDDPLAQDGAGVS
# Chain of Sigma intracellular receptor 2 (Q5BJF2 whole entry): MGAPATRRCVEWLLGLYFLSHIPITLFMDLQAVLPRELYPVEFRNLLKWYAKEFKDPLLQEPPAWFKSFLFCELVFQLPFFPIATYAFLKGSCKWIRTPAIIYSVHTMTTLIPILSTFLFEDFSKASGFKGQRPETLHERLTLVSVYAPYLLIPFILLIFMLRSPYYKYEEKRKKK
# Chain of Sodium-dependent noradrenaline transporter (P23975 whole entry): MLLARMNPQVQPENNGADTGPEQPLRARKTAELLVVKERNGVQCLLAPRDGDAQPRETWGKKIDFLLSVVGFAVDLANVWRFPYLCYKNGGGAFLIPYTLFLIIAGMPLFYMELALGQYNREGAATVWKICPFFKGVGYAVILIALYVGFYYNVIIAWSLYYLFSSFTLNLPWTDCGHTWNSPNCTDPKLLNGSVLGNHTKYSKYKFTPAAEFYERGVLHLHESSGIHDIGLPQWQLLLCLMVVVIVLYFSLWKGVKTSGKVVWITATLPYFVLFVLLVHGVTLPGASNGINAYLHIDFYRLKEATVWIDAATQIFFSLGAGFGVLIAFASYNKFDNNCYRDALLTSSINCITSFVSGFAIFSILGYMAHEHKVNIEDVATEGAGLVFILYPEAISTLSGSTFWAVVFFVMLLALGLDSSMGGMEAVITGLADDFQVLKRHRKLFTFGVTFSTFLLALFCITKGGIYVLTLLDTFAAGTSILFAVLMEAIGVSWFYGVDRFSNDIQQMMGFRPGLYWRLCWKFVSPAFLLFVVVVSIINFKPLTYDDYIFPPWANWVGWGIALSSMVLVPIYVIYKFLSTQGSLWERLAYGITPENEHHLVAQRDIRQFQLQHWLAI
# Chain of Histamine H2 receptor (P25021 whole entry): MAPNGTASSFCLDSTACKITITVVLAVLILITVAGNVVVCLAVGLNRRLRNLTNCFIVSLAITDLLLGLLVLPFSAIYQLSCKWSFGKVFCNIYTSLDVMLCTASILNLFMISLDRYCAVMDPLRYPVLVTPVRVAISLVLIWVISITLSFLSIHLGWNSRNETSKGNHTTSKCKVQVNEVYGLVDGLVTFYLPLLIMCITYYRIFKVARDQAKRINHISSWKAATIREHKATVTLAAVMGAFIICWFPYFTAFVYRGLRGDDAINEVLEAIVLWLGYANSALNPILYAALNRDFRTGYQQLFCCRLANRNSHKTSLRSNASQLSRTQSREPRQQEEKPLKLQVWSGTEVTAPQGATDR
# Chain of 5-hydroxytryptamine receptor 5A (P47898 whole entry): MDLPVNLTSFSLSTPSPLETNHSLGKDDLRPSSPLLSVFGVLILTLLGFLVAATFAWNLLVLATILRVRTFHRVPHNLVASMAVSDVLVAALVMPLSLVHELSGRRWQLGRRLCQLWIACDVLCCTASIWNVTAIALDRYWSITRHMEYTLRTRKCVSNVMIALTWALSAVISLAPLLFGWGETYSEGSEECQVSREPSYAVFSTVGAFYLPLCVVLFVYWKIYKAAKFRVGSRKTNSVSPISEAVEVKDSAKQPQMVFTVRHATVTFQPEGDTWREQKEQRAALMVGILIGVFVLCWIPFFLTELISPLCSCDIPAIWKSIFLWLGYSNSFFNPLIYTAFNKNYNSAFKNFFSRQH
# Chain of Translocator protein (P30536 whole entry): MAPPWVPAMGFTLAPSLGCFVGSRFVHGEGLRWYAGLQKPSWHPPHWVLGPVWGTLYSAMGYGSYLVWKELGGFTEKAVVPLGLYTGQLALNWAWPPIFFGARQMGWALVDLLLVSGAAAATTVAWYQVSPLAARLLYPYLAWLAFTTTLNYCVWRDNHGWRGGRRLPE
# Chain of 5-hydroxytryptamine receptor 2B (P41595 whole entry): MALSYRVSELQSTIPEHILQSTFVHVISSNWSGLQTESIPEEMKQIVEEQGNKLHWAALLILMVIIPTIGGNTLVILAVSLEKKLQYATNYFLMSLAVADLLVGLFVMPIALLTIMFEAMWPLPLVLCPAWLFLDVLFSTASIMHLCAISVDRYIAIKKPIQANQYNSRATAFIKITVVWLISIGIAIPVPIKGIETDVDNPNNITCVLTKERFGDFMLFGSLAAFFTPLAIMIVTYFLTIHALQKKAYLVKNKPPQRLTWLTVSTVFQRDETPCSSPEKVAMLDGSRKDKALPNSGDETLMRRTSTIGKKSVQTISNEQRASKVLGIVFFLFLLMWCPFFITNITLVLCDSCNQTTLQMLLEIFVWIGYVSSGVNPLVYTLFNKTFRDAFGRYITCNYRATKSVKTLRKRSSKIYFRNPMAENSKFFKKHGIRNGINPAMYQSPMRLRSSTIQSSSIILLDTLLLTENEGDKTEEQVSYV
# Chain of Adenosine receptor A2a (Mus musculus) (Q60613 whole entry): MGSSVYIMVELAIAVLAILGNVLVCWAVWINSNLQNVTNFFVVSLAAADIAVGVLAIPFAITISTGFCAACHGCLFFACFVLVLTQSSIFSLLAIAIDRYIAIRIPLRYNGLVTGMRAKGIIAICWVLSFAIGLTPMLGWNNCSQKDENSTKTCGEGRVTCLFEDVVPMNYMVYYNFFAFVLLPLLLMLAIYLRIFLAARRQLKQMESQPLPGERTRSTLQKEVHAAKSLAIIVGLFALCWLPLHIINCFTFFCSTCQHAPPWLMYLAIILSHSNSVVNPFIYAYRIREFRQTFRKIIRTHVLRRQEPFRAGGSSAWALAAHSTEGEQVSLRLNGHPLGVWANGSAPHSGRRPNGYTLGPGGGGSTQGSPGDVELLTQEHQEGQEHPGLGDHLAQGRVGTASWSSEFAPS
compound,measurement,setting,value
CCOC(=O)[C@@]12C[C@@H]1[C@@H](n1cnc3c(NC(C4CC4)C4CC4)nc(Cl)nc31)[C@@H]1OC(C)(C)O[C@@H]12,Ki,[1],8690 nM
same,inhibition,[2],15%
same,inhibition,[3],49%
same,Ki,[4],6380 nM
same,inhibition,[5],41%
OC[C@@]12C[C@@H]1[C@@H](n1cnc3c(N[C@H]4C[C@H]5CC[C@@H]4C5)nc(Cl)nc31)[C@H](O)[C@@H]2O,Ki,[6],472 nM
same,Emax,[7],104%
same,inhibition,[8],15%
same,Fu,[9],7.68%
same,Ki,[10],574 nM
same,Ki,[11],4260 nM
same,Ratio Ki,[12],547
same,Activity,[13],inactive
same,Activity,[14],inactive
same,Activity,[15],10
same,Fu,[16],6.59%
same,Emax,[17],62%
same,Activity,[18],inactive
same,T,[19],33.4 °C
same,Ki,[20],1.05 nM
same,Fu,[21],9.75%
same,Ki,[22],288 nM
same,Ki,[23],23.6 nM
same,Ki,[24],5740 nM
CCSC[C@H]1O[C@@H](n2cnc3c(NC(C4CCC4)C4CCC4)ncnc32)[C@H](O)[C@@H]1O,Ki,[25],642 nM
same,inhibition,[2],30%
same,inhibition,[26],90%
NC(=O)c1ncn([C@H]2[C@H](O)[C@H](O)[C@]3(CO)C[C@H]23)n1,Activity,[27],19.1
same,Ki,[25],2090 nM
same,T,[28],35.7 °C
same,Fu,[9],> 80%
same,inhibition,[2],11%
same,EC50,[29],2460 nM
same,Ratio Ki,[12],400
same,EC50,[30],758 nM
same,IC50,[31],87 nM
same,Fu,[16],> 80%
same,Emax,[17],31%
same,Fu,[21],> 80%
same,inhibition,[32],47%
same,inhibition,[5],41%
